{"source": "ChEMBL document CHEMBL1148036", "about": "“Novel nematocidal agents from Curcuma comosa” (1994)"}
{"test_system": "Caenorhabditis elegans", "experiment": "Nematocidal against Caenorhabditis elegans N2 assessed as motility after 16 hrs", "assay_type": "functional", "conditions": "N2, 16 h", "units": {"EC95": "µg/mL"}}
{"smiles": "O=C(CCc1ccccc1)C[C@@H](O)/C=C/c1ccccc1", "EC95": 1}
{"smiles": "OC(CC/C=C/c1ccccc1)CCc1ccccc1", "note": "(stereo not given)", "EC95": 0.7}
{"smiles": "OC(/C=C/C=C/c1ccccc1)CCc1ccccc1", "note": "(stereo not given)", "EC95": "> 100"}
{"smiles": "O=C(CC/C=C/c1ccccc1)CCc1ccccc1", "EC95": 9}
{"smiles": "CC(=O)OC(CC/C=C/c1ccccc1)CCc1ccccc1", "note": "(stereo not given)", "EC95": 9}
